Data reported in patent US11291684B2, “Treatment of glaucoma” (TX MEDIC AB, priority 2017, dated 2022).

How the values were obtained:
Format in all cases: in vivo, Sprague Dawley rats
glaucomatous eyes = experiment: Intraocular pressure in TGF-β-induced glaucoma model (rebound tonometer); conditions: rat, 15 mg/kg daily s.c. from day 14
From the text: Raised IOP was induced by twice weekly intracameral injections of the inflammatory cytokine TGF-β over the entire time period of 28 days. This induced scarring of the trabecular meshwork (TM) drainage portals by day 14 with associated raised IOP. Daily subcutaneous dextran sulfate/saline treatments commenced at day 14.
(§1) Glaucoma was induced in adult male Sprague Dawley rats by repeat twice weekly intracameral (IC) injections of transforming growth factor-β (TGF-β) to increase intraocular pressure (IOP). Sustained increases in IOP (after two weeks) leads to death of retinal ganglion cells (30-40%). Dextran sulfate (Tikomed AB, Sweden, WO 2016/076780) was administered at 15 mg/kg by daily subcutaneous injection from […] to assess RGC protection compared to controls.
Group 1 n=12 rats; 24 eyes IOP+IC TGF-β (twice weekly for 28 days) between day 0 and day 28+ daily subcutaneous administration of dextran sulfate from day 14 to day 28.
Sixteen 8 to 10 week-old male 175-200 g Sprague Dawley rats (Charles River, Kent, UK), housed with free access to food and water under a 12 h dark/light cycle, were used for these experiments. Surgery was performed at the Biomedical Services Unit at the University of Birmingham in accordance with the Home Office guidelines set out in the 1986 Animal Act (UK) and the ARVO Statement for the Use of Animals in Ophthalmic and Vision Research. […] The post-operative welfare of all rats was monitored closely. […]
Using an iCare Tonolab rebound tonometer (Icare, Helsinki, Finland), IOP was recorded bi-weekly between 9-11 am for the duration of each experiment to avoid confounding the readings with circadian variability. Immediately after induction of anesthesia with 5% isoflurane, six rebound measurements were taken with the tonometer from the central cornea on each measurement occasion to give an overall average IOP measurement (mmHg) and all graphical data points represent the mean±SEM of 3 readings (of 6 rebounds each) taken sequentially to ensure accurate measurements.

[1] = system: retinal ganglion cell (RGC); experiment: Retinal ganglion cell counts by immunohistochemistry in TGF-β-induced glaucoma model; conditions: rat TGF-β glaucoma model; day 28; vs saline
Experimental: as §1
Measured End-Points • IOP twice weekly throughout study from day 0 to day 28; • Immunohistochemistry for counting RGC that are immunoreactive for brain-specific homeobox/POU domain protein 3A (Brn3a) at day 28 (RGC survival); • Immunohistochemistry for laminin and fibronectin to evaluate scarring in the trabecular meshwork at day 28 in Groups 1 and 2; • Anterior segment and OCT imaging at day 28 to examine the angle and the thickness of the retinal nerve fiber layer comprising RGC axons; and • Body weight at day 28. […]
For quantification of RGC in retinal sections, RPBMS^+/DAPI^+ RGC were counted in 15 μm thick parasagittal sections of retina from a 250 μm linear portion from the ganglion cell layer at either side of the optic nerve. Four retinal sections from each eye in the control and treatment groups were quantified. […]

[2] = system: retinal nerve fiber layer (RNFL); experiment: OCT analysis of retinal nerve fiber layer in TGF-β-induced glaucoma model; conditions: rat TGF-β glaucoma model; day 28
Experimental: as §1
(§2) Measured End-Points • IOP twice weekly throughout study from day 0 to day 28; • Immunohistochemistry for counting RGC that are immunoreactive for brain-specific homeobox/POU domain protein 3A (Brn3a) at day 28 (RGC survival); • Immunohistochemistry for laminin and fibronectin to evaluate scarring in the trabecular meshwork at day 28 in Groups 1 and 2; • Anterior segment and OCT imaging at day 28 to examine the angle and the thickness of the retinal nerve fiber layer comprising RGC axons; and • Body weight at day 28.
Optical coherence tomography allows in vivo measuring of retinal thickness with RNFL being a surrogate measure of RGC density. OCT retinal nerve fiber layer analysis was performed at day 28 on all rats while under inhalation anesthesia using a Spectralis HRA3 confocal scanning laser ophthalmoscope (Heidelberg Engineering). […] In-built software was used to segment the images and quantify the RNFL thickness.

[3] = Body weight and activity of rats in glaucoma model; conditions: rat; day 28; treated animals gaining less weight
From the text: as §2

Question: For dextran sulfate, which “IOP compared to controls” value (glaucomatous eyes; IC TGF-β twice weekly, day 24, vs saline) is on record?
Answer: significantly lower (P<0.001) and normalized

Question: What about the “IOP compared to control group” value (glaucomatous eyes; IC TGF-β twice weekly, day 28 (end of experiment), vs saline) of the same substance?
Answer: remained significantly lower

Question: What about the “time of treatment after which elevated IOP started to reduce” value (glaucomatous eyes; IC TGF-β) of the same substance?
Answer: 7 days

Question: And the “decline in RGC numbers present in the retina” value [1]?
Answer: significantly prevented

Question: What about the “RNFL (OCT) compared to saline treatment” value [2] of the same substance?
Answer: preserved

Question: And the “body weight difference vs saline treated animals” value [3]?
Answer: small but non-significant difference
